# Measurements published in US20050027003A1, “Methods of therapeutic treatment using retinoids with reduced side effects” (Allergan, Inc., priority 2003, published 2005).
# Legend:
# [1] = Example 8: PK and PD interactions of oral tazarotene and oral contraceptives; format: in vivo, human; conditions: up to 6 mg once daily
# Experimental: It is the objective of this study to determine if there are pharmacokinetic (PK) and pharmacodynamic (PD) interactions between tazarotene and commonly prescribed oral contraceptives (OCs) when coadministered together.
# Three separate clinical studies are conducted to evaluate the PK and PD interactions of oral tazarotene and OCs in healthy volunteers. Two studies evaluate daily doses of norethindrone (NE)/ethinyl estradiol (EE) with daily doses of tazarotene 1.1 mg (N=27) and 6 mg (N=29). The third study assesses the daily doses of norgestimate (NGM)/EE with daily doses of tazarotene 6 mg (N=26). OCs are administered for three consecutive menstrual cycles. Daily doses of tazarotene are started during the 2nd cycle and continued through the end of the studies. PK parameters for EE, NE, and NGM (AUC0-24 and Cmax) are determined before tazarotene dosing and after tazarotene dosing on day 6 of the 2nd and 3rd cycles. Serum concentrations of luteinizing hormone (LH) and follicle-stimulating hormone (FSH)-markers of contraceptive efficacy are also evaluated before tazarotene dosing and after tazarotene dosing on days 2, 4, and 6 of the 2nd and 3rd cycles. Serum progesterone levels are assessed on days 18 and 20 of the 2nd and 3rd cycles. […]
# [2] = test system: patients with moderate to very severe plaque psoriasis; assay: Example 4: open-label extension study of oral tazarotene in plaque psoriasis; format: in vivo, human; conditions: 4.5 mg once daily
# Experimental: Two multicenter, double-blind, placebo-controlled studies ware conducted to evaluate the efficacy and safety of oral tazarotene (4.5 mg once daily) in patients with moderate to very severe plaque psoriasis. […] Efficacy evaluations include overall lesional assessment (OLA), percent body surface area involvement, global response to treatment, plaque elevation, scaling, and erythema. OLA is graded on a 6-point scale (0=none, 1=minimal, 2=mild, 3=moderate, 4=severe, 5=very severe).
# [3] = test system: patients with moderate to very severe plaque psoriasis; assay: as above; format: in vivo, human; conditions: 4.5 mg once daily, 12 weeks, across both groups
# AP1 = AP1 antagonism
# patients with acne = assay: Example 6: studies of oral tazarotene for acne, adverse events (Table 2); format: in vivo, human; conditions: combined data from Studies 1 and 2 (N = 223)
# Experimental: Studies are conducted on orally administered tazarotene for the treatment of acne. Adverse events (side effects) are monitored.
# [4] = test system: patients having nodulocystic acne; assay: Example 5: two placebo-controlled dose-ranging safety studies in nodulocystic acne; format: in vivo, human; conditions: for depression, patients: placebo 2%; for emotional lability, patients: placebo 4%
# Experimental: Two placebo-controlled dose-ranging studies are conducted to evaluate the safety of oral tazarotene in patients having nodulocystic acne. In the first study, patients receive orally administered tazarotene at daily doses of 0.4 mg to 2.8 mg in 96 (71+25) patients (12 weeks treatment plus 12 weeks post-treatment). In the second study, daily doses of 0.75 mg to 6 mg tazarotene are administered to 181 patients (24 weeks treatment plus 12 weeks post-treatment).
# [5] = test system: patients with severe nodulocystic acne; assay: Example 10: placebo-controlled parallel-group study of oral tazarotene in severe nodulocystic acne; format: in vivo, human; conditions: for patients withdrawing due to adverse events: placebo 0%
# Description: A multicenter, double-blind, randomized, placebo-controlled parallel-group study is undertaken to determine the efficacy of orally administered tazarotene in treating severe nodulocystic acne.
# In addition, washout periods for other medications for this study are: 1 week for vitamin A supplements >5000 IU; 2 weeks for topical anti-acne medications (e.g., retinoids, azelaic acid, benzoyl peroxide); 2 weeks for topical or systemic antibiotic therapy that may alter the course of acne; and 6 months for systemic retinoids.
# Patients are randomized to receive placebo or oral tazarotene (0.75, 1.5, 3, or 6 mg), in a 1:1:1:1:1 ratio once daily for 24 weeks. After this, the patients are followed without treatment for an additional 12 weeks. Patients discontinuing from the treatment period due to adverse effects or lack of efficacy are eligible for entry into the post-treatment phase.
# In the study, overall acne severity is rated as: none (no inflammatory acne lesions); mild (few to several papules or pustules, no nodulocystic lesions); moderate (several to many papules or pustules, few to several nodulocystic lesions); and severe (numerous or extensive papules or pustules, many, for example, at least about 5 or at least about 10, nodulocystic lesions).
# Treatment success is defined as at least moderate (about 50%) improvement on the following 7-point global response scale: • 0=completely cleared • 1=almost cleared (about 90% improvement) • 2=marked response (about 75% improvement) • 3=moderate response (about 50% improvement) • 4=slight response (about 25% improvement) • 5=condition unchanged • 6=condition worsened
# In this study, facial nodulocystic lesion count includes lesions greater than 5 mm in size. Facial papular/pustular lesion count includes lesions less than or equal to 5 mm in size. Facial non-inflammatory lesion count includes open and closed comedones.
# Sebum output is assessed every 4 weeks at selected centers using the Sebutape® patches, sold by Cuderm Corporation. Urinalysis, chemistry, and hematology values are monitored. Bone formation and resorption assessments (serum bone alkaline phosphatase and serum amino terminal telopeptides, respectively) at selected centers are monitored.
# Bone mineral density of spine and proximal femur at selected centers is monitored. Ligament calcification or osteophyte formation (lateral X-ray of the cervical and thoracic spine, and ankle calcaneous) is monitored. Epiphyseal growth plate closure (internal oblique X-ray of the ankle in patients less than or equal to 21 years old) is monitored.
# [6] = 0.75 to 6 mg once daily, 24 weeks
smiles,measurement,setting,value
CCOC(=O)c1ccc(C#Cc2ccc3c(c2)C(C)(C)CCS3)nc1 [tazarotene],effect on PK or efficacy of NE/EE and NGM/EE oral contraceptives,[1],does not affect
same,changes in liver function test values or cholesterol levels,[2],no clinically significant changes
same,serious adverse events considered related to the study treatment,[2],no serious adverse events
same,incidence of arthralgia,"[2]; 12 weeks, across both groups",20%
same,incidence of asthenia,"[2]; 12 weeks, across both groups",6%
same,incidence of back pain,"[2]; 12 weeks, across both groups",11%
same,incidence of cheilitis,"[2]; 12 weeks, across both groups",70%
same,incidence of hypertriglyceridemia,"[2]; 12 weeks, across both groups",6%
same,incidence of myalgia,"[2]; 12 weeks, across both groups",15%
same,incidence of dry skin,[3],25%
same,incidence of headache,[3],11%
same,incidence of infection,[3],10%
same,AP1 antagonism,AP1,potent
same,Adverse event: Cheilitis,patients with acne,134 (60.1) number (%) of patients
same,Adverse event: Conjunctivitis,patients with acne,0 (0.0) number (%) of patients
same,Adverse event: Desquamation central face/Desquamation,patients with acne,1 (0.4) number (%) of patients
same,Adverse event: Dry Skin,patients with acne,79 (35.4) number (%) of patients
same,Adverse event: Dry nose,patients with acne,7 (3.1) number (%) of patients
same,Adverse event: Epistaxis,patients with acne,6 (2.7) number (%) of patients
same,Adverse event: Fingertip peeling/Desquamation,patients with acne,1 (0.4) number (%) of patients
same,Adverse event: Headache,patients with acne,26 (11.7) number (%) of patients
same,Adverse event: Irritation of eyes,patients with acne,0 (0.0) number (%) of patients
same,Adverse event: Joint pain/Arthralgia,patients with acne,18 (8.1) number (%) of patients
same,Adverse event: Peeling/Desquamation,patients with acne,1 (0.4) number (%) of patients
same,Adverse event: Pruritus,patients with acne,10 (4.5) number (%) of patients
same,Adverse event: Rash-dermatitis/Rash,patients with acne,7 (3.1) number (%) of patients
same,Adverse event: Red Scaly face/Desquamation,patients with acne,1 (0.4) number (%) of patients
same,Adverse event: Skin fragility/Skin disorder,patients with acne,1 (0.4) number (%) of patients
same,"changes in urinalysis, chemistry, or hematology measures (incl. liver function tests, triglycerides, total cholesterol, HDL cholesterol)",[4]; 0.4 mg to 6 mg daily,no consistent dose-related clinically significant changes
same,"ligament calcification, osteophyte formation, changes in serum bone alkaline phosphatase, serum amino terminal telopeptides, bone density",[4]; 0.4 mg to 6 mg daily,not associated with any clinically significant
same,"depression, patients","[4]; 3 mg group (2 mild, 1 severe)",8%
same,"emotional lability, patients",[4]; 3 mg group,3%
same,"depression, patients",[4]; 6 mg group,none
same,"emotional lability, patients",[4]; 6 mg group,14%
same,"dry skin, severe",[4]; all groups,No patient
same,patients withdrawing due to adverse events,[5]; 0.75 mg group (2/35),6%
same,patients withdrawing due to adverse events,[5]; 1.5 mg group (0/37),0%
same,incidence of treatment success (≧50% global improvement) vs placebo,"[5]; 3 mg and 6 mg, week 24 and throughout post-treatment phase, p≦0.05",significantly higher incidence
same,patients withdrawing due to adverse events,[5]; 3 mg group (2/37),5%
same,patients withdrawing due to adverse events,[5]; 6 mg group (1/36),3%
same,percentage of patients with at least a 90% reduction in facial nodulocystic lesion count vs placebo,"[5]; 6 mg group, end of the post-treatment phase",significant superiority over placebo
same,reduction of overall acne severity,"[5]; 6 mg, week 16 until end of post-treatment phase, p≦0.01",significantly more than placebo
same,"bone formation and resorption (serum bone alkaline phosphatase, serum amino terminal telopeptides)",[5]; [6],do not appear to be altered
same,"changes in urinalysis, chemistry, or hematology measures (incl. liver function tests, triglycerides, total cholesterol, HDL cholesterol)",[5]; [6],None of the treatment groups show any consistent clinically significant changes
same,reductions in number of facial papules or pustules and facial non-inflammatory acne lesions vs placebo,[5]; from week 8 onward,consistently greater reductions
same,reductions in number of total facial nodulocystic lesions vs placebo,[5]; from week 8 onward,consistently greater reductions
same,efficacy in severe nodulocystic acne,"[5]; once-daily doses of 1.5, 3, and 6 mg",efficacious
